# In US6395260B1, “Topical cosmetic compositions comprising benzaldoximes” (Haarmann & Reimer GmbH, priority 1999, dated 2002):
row,melting point,Compound
1,177 °C (dec.),"ON=Cc1cc(O)c(O)c(O)c1 [Test compound 2, 3,4,5-trihydroxybenzaldoxime]"
2,142.4 °C,"COc1ccc(C=NO)cc1O [Test compound 6, 3-hydroxy-4-methoxybenzaldoxime]"
3,61.4 °C,"CCON=Cc1ccc(OC)c(O)c1 [Test compound 3, 3-hydroxy-4-methoxybenzaldehyde O-ethyloxime]"
4,23 °C,"CCON=Cc1ccc(O)c(O)c1 [Test compound 11, 3,4-dihydroxybenzaldehyde O-ethyloxime]"
5,31.7 °C,"CCON=Cc1ccc(O)c(OC)c1 [Test compound 7, 4-hydroxy-3-methoxybenzaldehyde O-ethyloxime]"
6,143 °C (dec.),"ON=Cc1ccc(O)c(O)c1 [Test compound 5, 3,4-dihydroxybenzaldoxime]"
7,118.2 °C,"COc1cc(C=NO)ccc1O [Test compound 10, 4-hydroxy-3-methoxybenzaldoxime]"
8,85 to 86 °C,"Cc1ccc(CON=Cc2ccc(O)c(O)c2)cc1 [Test compound 8, 3,4-dihydroxybenzaldehyde O-(4-methylbenzyl)-oxime]"
9,43 °C,"CCON=Cc1ccc(O)c(OCC)c1 [Test compound 4, 3-ethoxy-4-hydroxybenzaldehyde O-ethyloxime]"
10,189 °C (dec.),"CCOc1cc(C=NO)ccc1O [Test compound 9, 3-ethoxy-4-hydroxybenzaldoxime]"
